In patent US20250034135A1, “ANTI-APOPTOTIC PROTEIN BCL-2 INHIBITOR, PHARMACEUTICAL COMPOSITION AND USES THEREOF” (HANGZHOU HEALZEN THERAPEUTICS CO., LTD., priority 2021, published 2025) one finds IC50 data, which are given here for 17 molecules.

By IC50 is commonly meant the point on the concentration scale where inhibition reaches its midpoint.

Each structure is given as a SMILES string. Where only a bound is given, the exact number is not on record here.

Chain of BCL2 (P10415 whole entry): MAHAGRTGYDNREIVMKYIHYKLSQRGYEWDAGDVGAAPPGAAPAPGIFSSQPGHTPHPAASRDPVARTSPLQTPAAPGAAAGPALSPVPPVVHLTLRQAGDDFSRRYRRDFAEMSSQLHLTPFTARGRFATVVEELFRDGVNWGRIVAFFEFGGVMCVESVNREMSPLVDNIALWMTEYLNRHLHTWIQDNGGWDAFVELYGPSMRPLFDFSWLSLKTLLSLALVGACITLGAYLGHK

For this assay, the target named is BCL2 (Homo sapiens (Human), UniProt P10415). In words: Molecular level activity test of anti-apoptotic protein BCL2 (HTRF, binding to Bim peptide). The note with it: HTRF, binding of BCL2 to Bim peptide; read-out: BCL2 nM (inhibitory activity, IC50). In a few lines:
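Step one: compound, supplied in 2% DMSO, is mixed with His-tagged BCL2 and biotinylated Bim peptide and reacted for 1 h. Step two: anti-His and streptavidin-XL665 reagents in detection buffer are added. Step three: after a 4 h room-temperature incubation, time-resolved fluorescence is measured.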
Turning to `COc1ccc(CN2CCN(C3CC4(CCN(c5cc(Oc6cnc7[nH]ccc7c6)c(C(=O)NS(=O)(=O)c6cc([N+](=O)[O-])c(NCC7CCOCC7)c7scnc67)cc5F)CC4)C3)[C@H](c3ccccc3C(C)C)C2)cc1` [compound 122, (R)-2-((1H-pyrrolo[2,3-b]pyrid-5-yl)oxy)-5-fluoro-4-(2-(2-(2-isopropylphenyl)-4-(4-methoxybenzyl)piperazin-1-yl)-7-azaspiro[3.5]non-7-yl)-N-((6-nitro-7-(((tetrahydro-2H-pyran-4-yl)methyl)amino)benzo[d]thiazol-4-yl)sulfonyl)benzamide], the IC50 is less than 0.01 µM.

On to `COc1ccc(CN2CCN(C3CC4(CCN(c5cc(Oc6cnc7[nH]ccc7c6)c(C(=O)NS(=O)(=O)c6cc([N+](=O)[O-])c(NC[C@H]7COCCO7)c7c6OCO7)cc5F)CC4)C3)[C@H](c3ccccc3C(C)C)C2)cc1` [compound 123], for which the IC50 is less than 0.01 µM.

Take `COc1ccc(CN2CCN(C3CC4(CCN(c5cc(Oc6cnc7[nH]ccc7c6)c(C(=O)NS(=O)(=O)c6cc([N+](=O)[O-])c(NC[C@H]7COCCO7)c7ocnc67)cc5F)CC4)C3)[C@H](c3ccccc3C(C)C)C2)cc1` [compound 124]: the IC50 is less than 0.01 µM.

For the molecule `COc1ccc(CN2CCN(C3CC4(CCN(c5cc(Oc6cnc7[nH]ccc7c6)c(C(=O)NS(=O)(=O)c6cc([N+](=O)[O-])c(NC[C@H]7COCCO7)c7scnc67)cc5F)CC4)C3)[C@H](c3ccccc3C(C)C)C2)cc1` [compound 125], the IC50 is less than 0.01 µM.

`COc1ccc(CN2CCN(C3CC4(CCN(c5cc(Oc6cnc7[nH]ccc7c6)c(C(=O)NS(=O)(=O)c6cc([N+](=O)[O-])c(NCC7(F)CCOCC7)c7c6OCO7)cc5F)CC4)C3)[C@H](c3ccccc3C(C)C)C2)cn1` [compound 126]: the half-inhibitory concentration (IC50) is less than 0.01 µM.

Regarding `COc1ccc(CN2CCN(C3CC4(CCN(c5cc(Oc6cnc7[nH]ccc7c6)c(C(=O)NS(=O)(=O)c6cc([N+](=O)[O-])c(NCC7(F)CCOCC7)c7ocnc67)cc5F)CC4)C3)[C@H](c3ccccc3C(C)C)C2)cn1` [compound 127, (R)-2-((1H-pyrrolo[2,3-b]pyrid-5-yl)oxy)-5-fluoro-N-((7-(((4-fluorotetrahydro-2H-pyran-4-yl)methyl)amino)-6-nitrobenzo[d]oxazol-4-yl)sulfonyl)-4-(2-(2-(2-isopropylphenyl)-4-((6-methoxypyrid-3-yl)methyl)piperazin-1-yl)-7-azaspiro[3.5]non-7-yl)benzamide], the IC50 was less than 0.01 µM.

As for `COc1ccc(CN2CCN(C3CC4(CCN(c5cc(Oc6cnc7[nH]ccc7c6)c(C(=O)NS(=O)(=O)c6cc([N+](=O)[O-])c(NCC7(F)CCOCC7)c7scnc67)cc5F)CC4)C3)[C@H](c3ccccc3C(C)C)C2)cn1` [compound 128, (R)-2-((1H-pyrrolo[2,3-b]pyrid-5-yl)oxy)-5-fluoro-N-((7-(((4-fluorotetrahydro-2H-pyran-4-yl)methyl)amino)-6-nitrobenzo[d]thiazol-4-yl)sulfonyl)-4-(2-(2-(2-isopropylphenyl)-4-((6-methoxypyrid-3-yl)methyl)piperazin-1-yl)-7-azaspiro[3.5]non-7-yl)benzamide], the IC50 is less than 0.01 µM.

With `COc1ccc(CN2CCN(C3CC4(CCN(c5cc(Oc6cnc7[nH]ccc7c6)c(C(=O)NS(=O)(=O)c6cc([N+](=O)[O-])c(NCC7(F)CCOCC7)c7occc67)cc5F)CC4)C3)[C@H](c3ccccc3C(C)C)C2)cn1` [compound 129, (R)-2-((1H-pyrrolo[2,3-b]pyrid-5-yl)oxy)-5-fluoro-N-((7-(((4-fluorotetrahydro-2H-pyran-4-yl)methyl)amino)-6-nitrobenzofuran-4-yl)sulfonyl)-4-(2-(2-(2-isopropylphenyl)-4-((6-methoxypyrid-3-yl)methyl)piperazin-1-yl)-7-azaspiro[3.5]non-7-yl)benzamide], the IC50 was less than 0.01 µM.

As to `COc1ccc(CN2CCN(C3CC4(CCN(c5cc(Oc6cnc7[nH]ccc7c6)c(C(=O)NS(=O)(=O)c6cc([N+](=O)[O-])c(NCC7(F)CCOCC7)c7c6OCO7)cc5F)CC4)C3)[C@H](c3ccccc3C(C)C)C2)c(F)n1` [compound 130, (R)-2-((1H-pyrrolo[2,3-b]pyrid-5-yl)oxy)-5-fluoro-4-(2-(4-((2-fluoro-6-methoxypyrid-3-yl)methyl)-2-(2-isopropylphenyl)piperazin-1-yl)-7-azaspiro[3.5]non-7-yl)-N-((7-(((4-fluorotetrahydro-2H-pyran-4-yl)methyl)amino)-6-nitrobenzo[d][1,3]dioxocyclopent-4-yl)sulfonyl)benzamide], the IC50 was less than 0.01 µM.

For `COc1ccc(CN2CCN(C3CC4(CCN(c5cc(Oc6cnc7[nH]ccc7c6)c(C(=O)NS(=O)(=O)c6cc([N+](=O)[O-])c(NCC7(F)CCOCC7)c7ocnc67)cc5F)CC4)C3)[C@H](c3ccccc3C(C)C)C2)c(F)n1` [compound 131, (R)-2-((1H-pyrrolo[2,3-b]pyrid-5-yl)oxy)-5-fluoro-4-(2-(4-((2-fluoro-6-methoxypyrid-3-yl)methyl)-2-(2-isopropylphenyl)piperazin-1-yl)-7-azaspiro[3.5]non-7-yl)-N-((7-(((4-fluorotetrahydro-2H-pyran-4-yl)methyl)amino)-6-nitrobenzo[d]yl)sulfonyl)benzamide], the IC50 was less than 0.01 µM.

For the molecule `COc1ccc(CN2CCN(C3CC4(CCN(c5cc(Oc6cnc7[nH]ccc7c6)c(C(=O)NS(=O)(=O)c6cc([N+](=O)[O-])c(NCC7(F)CCOCC7)c7c6OCO7)cn5)CC4)C3)[C@H](c3ccccc3C(C)C)C2)cc1` [compound 132, (R)-4-((1H-pyrrolo[2,3-b]pyrid-5-yl)oxy)-N-((7-(((4-fluorotetrahydro-2H-pyran-4-yl)methyl)amino)-6-nitrobenzo[d][1,3]dioxocyclopent-4-yl)sulfonyl)-6-(2-(2-(2-isopropylphenyl)-4-(4-methoxybenzyl)piperazin-1-yl)-7-azaspiro[3.5]non-7-yl) nicotinamide], the half-inhibitory concentration (IC50) is less than 0.01 µM.

Consider `COc1ccc(CN2CCN(C3CC4(CCN(c5cc(Oc6cnc7[nH]ccc7c6)c(C(=O)NS(=O)(=O)c6cc([N+](=O)[O-])c(NCC7(F)CCOCC7)c7ocnc67)cn5)CC4)C3)[C@H](c3ccccc3C(C)C)C2)cc1` [compound 133, (R)-4-((1H-pyrrolo[2,3-b]pyridine-5-yl)oxy)-N-((7-(((4-fluorotetrahydro-2H-pyran-4-yl)methyl)amino)-6-nitrobenzo[d]oxazol-4-yl)sulfonyl)-6-(2-(2-(2-isopropylphenyl)-4-(4-methoxybenzyl)piperazin-1-yl)-7-azaspiro[3.5]non-7-yl) nicotinamide], for which the IC50 is less than 0.01 µM.

Regarding `COc1ccc(CN2CCN(C3CC4(CCN(c5cc(Oc6cnc7[nH]ccc7c6)c(C(=O)NS(=O)(=O)c6cc([N+](=O)[O-])c(NCC7(F)CCOCC7)c7scnc67)cn5)CC4)C3)[C@H](c3ccccc3C(C)C)C2)cc1` [compound 134, (R)-4-((1H-pyrrolo[2,3-b]pyridine-5-yl)oxy)-N-((7-(((4-fluorotetrahydro-2H-pyran-4-yl)methyl)amino)-6-nitrobenzo[d]thiazol-4-yl)sulfonyl)-6-(2-(2-(2-isopropylphenyl)-4-(4-methoxybenzyl)piperazin-1-yl)-7-azaspiro[3.5]non-7-yl) nicotinamide], the IC50 is less than 0.01 µM.

In the case of `COc1ccc(CN2CCN(C3CC4(CCN(c5cc(Oc6cnc7[nH]ccc7c6)c(C(=O)NS(=O)(=O)c6cc([N+](=O)[O-])c(NCC7(F)CCOCC7)c7occc67)cn5)CC4)C3)[C@H](c3ccccc3C(C)C)C2)cc1` [compound 135, (R)-4-((1H-pyrrolo[2,3-b]pyrid-5-yl)oxy)-N-((7-(((4-fluorotetrahydro-2H-pyran-4-yl)methyl)amino)-6-nitrobenzofuran-4-yl)sulfonyl)-6-(2-(2-(2-isopropylphenyl)-4-(4-methoxybenzyl)piperazin-1-yl)-7-azaspiro[3.5]non-7-yl) nicotinamide], the IC50 is less than 0.01 µM.

Turning to `COc1ccc(CN2CCN(C3CC4(CCN(c5cc(Oc6cnc7[nH]ccc7c6)c(C(=O)NS(=O)(=O)c6cc([N+](=O)[O-])c(NCC7(F)CCOCC7)c7c6OCCO7)cn5)CC4)C3)[C@H](c3ccccc3C(C)C)C2)cc1` [compound 136, (R)-4-((1H-pyrrolo[2,3-b]pyrid-5-yl)oxy)-N-((8-(((4-fluorotetrahydro-2H-pyran-4-yl)methyl)amino)-7-nitro-2,3-dihydrobenzo[b][1,4]dioxan-5-yl)sulfonyl)-6-(2-(2-(2-isopropylphenyl)-4-(4-methoxybenzyl)piperazin-1-yl)-7-azaspiro[3.5]non-7-yl) nicotinamide], the IC50 was less than 0.01 µM.

Regarding `COc1ccc(CN2CCN(C3CC4(CCN(c5cc(Oc6cnc7[nH]ccc7c6)c(C(=O)NS(=O)(=O)c6cc([N+](=O)[O-])c(NC[C@H]7CC[C@](C)(O)CC7)c7c6OCO7)cn5)CC4)C3)[C@H](c3ccccc3C(C)C)C2)cc1` [compound 137, 4-((1H-pyrrolo[2,3-b]pyrid-5-yl)oxy)-N-((7-((((1r, 4r)-4-hydroxy-4-methylcyclohexyl)methyl)amino)-6-nitrobenzo[d][1,3]dioxocyclopent-4-yl)sulfonyl)-6-(2-((R)-2-(2-isopropylphenyl)-4-(4-methoxybenzyl)piperazin-1-yl)-7-azaspiro[3.5]non-7-yl) nicotinamide], the IC50 is less than 0.01 µM.

Regarding `COc1ccc(CN2CCN(C3CC4(CCN(c5cc(Oc6cnc7[nH]ccc7c6)c(C(=O)NS(=O)(=O)c6cc([N+](=O)[O-])c(NC[C@H]7CC[C@](C)(O)CC7)c7ocnc67)cn5)CC4)C3)[C@H](c3ccccc3C(C)C)C2)cc1` [compound 138, 4-((1H-pyrrolo[2,3-b]pyrid-5-yl)oxy)-N-((7-((((1r, 4r)-4-hydroxy-4-methylcyclohexyl)methyl)amino)-6-nitrobenzo[d]oxazol-4-yl)sulfonyl)-6-(2-((R)-2-(2-isopropylphenyl)-4-(4-methoxybenzyl)piperazin-1-yl)-7-azaspiro[3.5]non-7-yl) nicotinamide], the 50% inhibitory concentration (IC50) was less than 0.01 µM.
